Laboratory results from PubChem BioAssay AID330 (DTP/NCI, 2004).
Values joined by “and” are separate entries in the source; they are usually repeats but may differ in a detail not shown here. Equal values may be shown once. Toxic doses and inconclusive results are not listed. How the source made its calls: active means survival T/C of 150% or more; inactive means T/C below 125% in these data.

Tested on: P388 leukemia ip, CD2F1 mice, survival T/C
Assay: NCI In Vivo Anticancer Drug Screen. Data for tumor model P388 Leukemia (intraperitoneal) in CD2F1 (CDF1) mice
Settings: endpoint: median survival time, higher = longer survival
Procedure, shortened: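 Mice carrying the transplanted tumor received test compound or vehicle. Survival was recorded in each group, and the value is the treated-group measurement divided by that of the vehicle-treated control group.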

[1] = dose: 12.5 mg/kg/injection, schedule: Q01DX009 (ip), vehicle: Klucel (hydroxypropylcellulose) (HPC)
[2] = dose: 50.0 mg/kg/injection, schedule: Q01DX005 (ip), vehicle: Klucel (hydroxypropylcellulose) (HPC)
[3] = dose: 100.0 mg/kg/injection, schedule: Q01DX005 (ip), vehicle: Klucel (hydroxypropylcellulose) (HPC)
[4] = dose: 60.0 mg/kg/injection, schedule: Q01DX005 (ip), vehicle: saline with Tween-80
[5] = dose: 120.0 mg/kg/injection, schedule: Q01DX005 (ip), vehicle: saline with Tween-80
[6] = dose: 240.0 mg/kg/injection, schedule: Q01DX005 (ip), vehicle: saline with Tween-80
[7] = dose: 200.0 mg/kg/injection, schedule: Q01DX005 (ip), vehicle: Klucel (hydroxypropylcellulose) (HPC)

Measured: T/C

NN1C(=O)C2C3C=CC(C4CC34)C2C1=O (stereo not drawn)
inactive: dose: 6.25 mg/kg/injection, schedule: Q01DX009 (ip), vehicle: Klucel (hydroxypropylcellulose) (HPC) 100 % of control | [1] 110 % of control

NC(=O)c1ccccc1NC(=O)c1ccccc1C(=O)O
inactive: dose: 50.0 mg/kg/injection, schedule: Q01DX009 (ip), vehicle: saline with Tween-80 100 % of control and 101 % of control | dose: 100.0 mg/kg/injection, schedule: Q01DX009 (ip), vehicle: saline with Tween-80 99 % of control and 103 % of control | dose: 200.0 mg/kg/injection, schedule: Q01DX009 (ip), vehicle: saline with Tween-80 101 % of control and 103 % of control | dose: 400.0 mg/kg/injection, schedule: Q01DX009 (ip), vehicle: saline with Tween-80 100 % of control and 101 % of control

CC1CCC2N(C1)CC1C3(O)CC4(O)C(CCC5C(=O)C(O)CCC54C)C3(O)CC(O)C1(O)C2(C)O (stereo not drawn)
inactive: dose: 1.87 mg/kg/injection, schedule: Q01DX005 (ip), vehicle: Klucel (hydroxypropylcellulose) (HPC) 96 % of control | dose: 3.75 mg/kg/injection, schedule: Q01DX005 (ip), vehicle: Klucel (hydroxypropylcellulose) (HPC) 97 % of control | dose: 7.5 mg/kg/injection, schedule: Q01DX005 (ip), vehicle: Klucel (hydroxypropylcellulose) (HPC) 99 % of control and 97 % of control

COc1ccc(C2=C[P+](c3ccccc3)(c3ccccc3)C=C(c3ccccc3)O2)cc1
inactive: dose: 0.75 mg/kg/injection, schedule: Q01DX005 (ip), vehicle: saline with Tween-80 100 % of control and 110 % of control | dose: 0.75 mg/kg/injection, schedule: Q01DX005 (ip), vehicle: saline 120 % of control | dose: 1.5 mg/kg/injection, schedule: Q01DX005 (ip), vehicle: saline with Tween-80 108 % of control and 119 % of control | dose: 1.5 mg/kg/injection, schedule: Q01DX005 (ip), vehicle: saline 110 % of control | dose: 3.0 mg/kg/injection, schedule: Q01DX005 (ip), vehicle: saline with Tween-80 110 % of control and 120 % of control | dose: 3.0 mg/kg/injection, schedule: Q01DX005 (ip), vehicle: saline 120 % of control | dose: 3.12 mg/kg/injection, schedule: Q01DX005 (ip), vehicle: saline with Tween-80 114 % of control | dose: 6.0 mg/kg/injection, schedule: Q01DX005 (ip), vehicle: saline with Tween-80 111 % of control | dose: 6.25 mg/kg/injection, schedule: Q01DX005 (ip), vehicle: saline with Tween-80 118 % of control

O=c1c2ccccc2oc2nc3cc(Cl)ccc3n12
inactive: dose: 50.0 mg/kg/injection, schedule: Q01DX005 (ip), vehicle: saline with Tween-80 104 % of control | dose: 100.0 mg/kg/injection, schedule: Q01DX005 (ip), vehicle: saline with Tween-80 95 % of control | dose: 200.0 mg/kg/injection, schedule: Q01DX005 (ip), vehicle: saline with Tween-80 98 % of control

CN(C)CCCNC(=S)C(=S)NCCCN(C)C
inactive: [2] 97 % of control | [3] 105 % of control

O=C1OC2C(O)COC23OC(O)CCC13O (stereo not drawn)
inactive: dose: 15.0 mg/kg/injection, schedule: Q01DX005 (ip), vehicle: saline with Tween-80 100 % of control | dose: 30.0 mg/kg/injection, schedule: Q01DX005 (ip), vehicle: saline with Tween-80 102 % of control | [4] 102 % of control | dose: 60.0 mg/kg/injection, schedule: Q01DX005 (ip), vehicle: saline 104 % of control | [5] 105 % of control | dose: 120.0 mg/kg/injection, schedule: Q01DX005 (ip), vehicle: saline 102 % of control | [6] 105 % of control | dose: 240.0 mg/kg/injection, schedule: Q01DX005 (ip), vehicle: saline 102 % of control

Clc1ccc2ccc3ccc(Cl)nc3c2n1
inactive: [4] 92 % of control | [5] 89 % of control | [6] 92 % of control

CP(=O)(OCCOCCOP(C)(=O)c1ccccc1)c1ccccc1 (stereo not drawn)
inactive: [2] 98 % of control | [3] 103 % of control | [7] 101 % of control

Oc1c(-c2ccccc2)nn(O)c1-c1ccccc1
inactive: [1] 106 % of control | dose: 25.0 mg/kg/injection, schedule: Q01DX009 (ip), vehicle: Klucel (hydroxypropylcellulose) (HPC) 100 % of control | dose: 50.0 mg/kg/injection, schedule: Q01DX009 (ip), vehicle: Klucel (hydroxypropylcellulose) (HPC) 95 % of control

CCC(=O)N/C(N)=N\C(N)=S
inactive: [2] 101 % of control | [3] 96 % of control | [7] 104 % of control
